Experimental findings from article PMC8948939 (Pharmaceutics, 2022) are described below.

Data set [1] relates to CYP2C19 (loratadine), CYP2C9 (sulfaphenazole), CYP3A4 (ketoconazole). As to the kind of experiment: in vitro. The conditions noted are these: human; for inhibition at 3 µM: pH 7.5; for activity: pH 7.5, % of Uninhibited Control (voriconazole N-oxidation velocity), HLM.
For data set [2], the system named is human liver microsomes (HLM). Conditions: mean over voriconazole 0.5, 1, 2, 3 µM.
Substrate in the data set “not read”: C[C@@H](c1ncncc1F)[C@](O)(Cn1cncn1)c1ccc(F)cc1F
Briefly: not read. The conditions noted are these: other: N-oxidation of voriconazole.

Broadly, the inhibition is the change of the read-out against control, counted positive when it falls. A high value points to strong suppression.

For `CC(=O)N1CCN(c2ccc(OCC3COC(Cn4ccnc4)(c4ccc(Cl)cc4Cl)O3)cc2)CC1` (centres unmarked) [ketoconazole], the inhibition at 3 µM in data set [1] was 47.6%. Besides, the activity in data set [1] (voriconazole 0.5 µM) is 49.8%; in data set [1] (voriconazole 1 µM), 48.4%; in data set [1] (voriconazole 2 µM), 53.6%; in data set [1] (voriconazole 3 µM), 57.9%. For the same molecule, the “Mean (SD) % of Uninhibited Control” value in data set [2] was 52.4 (4.26) %.
In data set [1], `Nc1ccc(S(=O)(=O)Nc2ccnn2-c2ccccc2)cc1` [sulfaphenazole] returned an inhibition at 3 µM of 36.2%. For the same molecule, the activity in data set [1] (voriconazole 0.5 µM) amounted to 64.8%; in data set [1] (voriconazole 1 µM), 60.7%; in data set [1] (voriconazole 2 µM) it was 62.6%; in data set [1] (voriconazole 3 µM) it was 66.9%. Further, in data set [2], the “Mean (SD) % of Uninhibited Control” value is listed as 63.8 (2.69) %.

B1: rhCYP2C9 (Homo sapiens) (protein)
chain: MDSLVVLVLCLSCLLLLSLWRQSSGRGKLPPGPTPLPVIGNILQIGIKDISKSLTNLSKVYGPVFTLYFGLKPIVVLHGYEAVKEALIDLGEEFSGRGIFPLAERANRGFGIVFSNGKKWKEIRRFSLMTLRNFGMGKRSIEDRVQEEARCLVEELRKTKASPCDPTFILGCAPCNVICSIIFHKRFDYKDQQFLNLMEKLNENIKILSSPWIQICNNFSPIIDYFPGTHNKLLKNVAFMKSYILEKVKEHQESMDMNNPQDFIDCFLMKMEKEKHNQPSEFTIESLENTAVDLFGAGTETTSTTLRYALLLLLKHPEVTAKVQEEIERVIGRNRSPCMQDRSHMPYTDAVVHEVQRYIDLLPTSLPHAVTCDIKFRNYLIPKGTTILISLTSVLHDNKEFPNPEMFDPHHFLDEGGNFKKSKYFMPFSAGKRICVGEALAGMELFLFLTSILQNFNLKSLVDPKNLDTTPVVNGFASVPPFYQLCFIPV
B1: the Km in “not read” (rhCYP2C9, pH 7.5) is on record as 4.06 (3.32–4.81) µM.

B2: rhCYP2C19 (Homo sapiens) (protein)
chain: MDPFVVLVLCLSCLLLLSIWRQSSGRGKLPPGPTPLPVIGNILQIDIKDVSKSLTNLSKIYGPVFTLYFGLERMVVLHGYEVVKEALIDLGEEFSGRGHFPLAERANRGFGIVFSNGKRWKEIRRFSLMTLRNFGMGKRSIEDRVQEEARCLVEELRKTKASPCDPTFILGCAPCNVICSIIFQKRFDYKDQQFLNLMEKLNENIRIVSTPWIQICNNFPTIIDYFPGTHNKLLKNLAFMESDILEKVKEHQESMDINNPRDFIDCFLIKMEKEKQNQQSEFTIENLVITAADLLGAGTETTSTTLRYALLLLLKHPEVTAKVQEEIERVIGRNRSPCMQDRGHMPYTDAVVHEVQRYIDLIPTSLPHAVTCDVKFRNYLIPKGTTILTSLTSVLHDNKEFPNPEMFDPRHFLDEGGNFKKSNYFMPFSAGKRICVGEGLARMELFLFLTFILQNFNLKSLIDPKDLDTTPVVNGFASVPPFYQLCFIPV
For B2, the Km in “not read” (rhCYP2C19, pH 7.5) is recorded as 1.31 (0.862–1.75) µM.
